Data on 2 compounds can be found in patent US20180250261A1, “METHOD FOR TREATING CANCER WITH A STAT3 PATHWAY INHIBITOR AND KINASE INHIBITOR” (BOSTON BIOMEDICAL, INC., priority 2015, published 2018).

For one assay, the target named is T1, STK33 (Homo sapiens, UniProt Q9BYT3).
T1 construct: from tissue; host or cells: human SW480 colon cancer xenograft tumours grown in female nude mice
The experiment in a line: immunofluorescence staining of SW480 xenograft tissue, STK33. Type of assay: in vivo. As to conditions: nude mice, oral daily, 14 doses, Compound A 100 mg/kg, Compound B 50 mg/kg, FIG. 6B. The procedure: (§1) The effect of a treatment combination of Compound A and Compound B on the levels of various pharmacodynamic (PD) markers for the agents in vivo was studied. A mouse xenograft model of human colon cancer (SW480) was used.
(§2) Levels of STK33 and Nanog were examined using immunofluorescence staining of the xenograft tissue. Female nude mice were inoculated subcutaneously with 8×10^6 human SW480 colon cancer cells. Animals were treated orally daily with vehicle, Compound A (100 mg/kg), Compound B (50 mg/kg), or Compound A and Compound B (100 mg/kg and 50 mg/kg, respectively) for a total of 14 doses. At the end of treatment, the tumors were harvested from euthanized mice. Part of the dissected tumors were fixed overnight in 3.7% neutral buffered formaldehyde at 4° C., and then paraffin embedded, cut to four micron sections, and affixed onto positively charged slides. After being baked and deparaffinized, the slides with tumor or control tissues were incubated in 10mM pH6.0 sodium citrate solution for antigen retrieval at 98° C. […] After being mounted with ProLong mounting medium containing DAPI (Invitrogen), the slides were examined on a Zeiss Axis Imager M2 upright fluorescence microscope with a 20× objective and analyzed with Zen software.

A further assay concerns Nanog. Put plainly: immunofluorescence staining of SW480 xenograft tissue, Nanog. Type of assay: in vivo, human. Particulars: nude mice, oral daily, 14 doses, Compound A 100 mg/kg, Compound B 50 mg/kg, FIG. 6B. The method, then:
as §1, §2

The target in the next assay is T2, p-STAT3 (Homo sapiens, UniProt P40763).
T2 construct: from tissue; host or cells: human SW480 colon cancer xenograft tumours grown in female nude mice
The experiment in a line: immunofluorescence staining of SW480 xenograft tissue, p-STAT3. In kind it is in vivo. As to conditions: nude mice, oral daily, 14 doses, Compound A 100 mg/kg, Compound B 50 mg/kg, FIG. 6A.

The next assay concerns STAT3 pathway. As to conditions: according to U.S. Pat. No. 8,877,803; read-out: STAT3 pathway activity, cellular IC50; cited from earlier work.

T1 sequence (Q9BYT3 whole entry): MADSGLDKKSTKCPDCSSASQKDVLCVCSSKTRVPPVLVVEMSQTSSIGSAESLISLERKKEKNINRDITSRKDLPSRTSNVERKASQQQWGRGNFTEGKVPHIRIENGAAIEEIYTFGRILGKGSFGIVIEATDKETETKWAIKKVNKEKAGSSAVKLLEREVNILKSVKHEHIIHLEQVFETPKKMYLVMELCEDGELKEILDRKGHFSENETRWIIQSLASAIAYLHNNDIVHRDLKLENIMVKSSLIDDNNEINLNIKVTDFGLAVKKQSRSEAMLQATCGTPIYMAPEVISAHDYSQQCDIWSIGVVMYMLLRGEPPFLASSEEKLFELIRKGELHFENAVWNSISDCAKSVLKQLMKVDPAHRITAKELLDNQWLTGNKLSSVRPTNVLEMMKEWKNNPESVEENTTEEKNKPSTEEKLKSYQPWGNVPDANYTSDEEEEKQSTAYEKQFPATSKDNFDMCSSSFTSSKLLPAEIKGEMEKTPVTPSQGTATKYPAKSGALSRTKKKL
T2 sequence (P40763 whole entry): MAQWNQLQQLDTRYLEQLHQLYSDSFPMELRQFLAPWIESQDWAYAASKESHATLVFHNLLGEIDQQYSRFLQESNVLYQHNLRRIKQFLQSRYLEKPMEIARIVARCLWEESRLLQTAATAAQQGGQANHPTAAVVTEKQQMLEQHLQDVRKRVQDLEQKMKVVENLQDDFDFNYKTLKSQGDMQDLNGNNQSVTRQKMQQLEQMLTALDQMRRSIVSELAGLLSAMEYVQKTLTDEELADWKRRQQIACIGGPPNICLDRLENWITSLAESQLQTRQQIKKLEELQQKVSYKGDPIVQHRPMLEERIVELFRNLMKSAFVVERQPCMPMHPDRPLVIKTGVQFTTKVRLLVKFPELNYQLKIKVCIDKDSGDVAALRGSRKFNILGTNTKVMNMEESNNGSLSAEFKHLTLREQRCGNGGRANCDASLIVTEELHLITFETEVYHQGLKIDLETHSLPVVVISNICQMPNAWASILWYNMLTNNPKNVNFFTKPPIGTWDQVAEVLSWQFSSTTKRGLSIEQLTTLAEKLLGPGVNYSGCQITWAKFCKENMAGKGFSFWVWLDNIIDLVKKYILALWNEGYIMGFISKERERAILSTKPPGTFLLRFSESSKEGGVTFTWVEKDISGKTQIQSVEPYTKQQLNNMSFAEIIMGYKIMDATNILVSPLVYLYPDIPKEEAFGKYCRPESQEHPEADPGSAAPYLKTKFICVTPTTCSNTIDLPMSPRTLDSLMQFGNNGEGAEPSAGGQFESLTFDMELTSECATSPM

As for `CCN(CC)CCNC(=O)c1c(C)[nH]c(/C=C2\C(=O)Nc3ccc(-c4csc(-c5ccccc5)n4)cc32)c1C` [Compound B], the “nuclear levels of STK33 in xenograft tissue” value at STK33 is recorded as “reduced”. In addition, in the assay with Nanog, the “nuclear levels of Nanog in xenograft tissue” value is “reduced”.
Take `CC(=O)c1cc2c(o1)C(=O)c1ccccc1C2=O` [Compound A, 2-acetylnaphtho[2,3-b]furan-4,9-dione]: at p-STAT3, the “cellular levels of p-STAT3 in xenograft tissue” value is reported as “significantly reduced”. Besides, the “cytoplasmic levels of STK33 in xenograft tissue” value on STK33 was “reduced”. Also, the “cytoplasmic levels of Nanog in xenograft tissue” value in the assay with Nanog is given as “reduced”. Besides, the IC50 with STAT3 pathway was roughly 250 nM.
